Experimental data: patent US5151502A, “Method for solubilizing membrane receptor proteins” (E. R. Squibb & Sons, Inc., priority 1991, dated 1992)

Columns and labels:
soluble AII receptor = target: T1, soluble AII receptor (Bos taurus, UniProt P25104); assay: [125I]-SI-AII radioligand binding, CHAPS-solubilized SM2-treated BAMM; design: species or system bovine; settings: for Inhibition of [125I]-SI-AII binding (in words): competition experiments
T1 construct: from tissue; host or cells: bovine adrenal microsomal membranes, solubilized with CHAPS and treated with SM2 beads
T1 sequence (P25104 1-359): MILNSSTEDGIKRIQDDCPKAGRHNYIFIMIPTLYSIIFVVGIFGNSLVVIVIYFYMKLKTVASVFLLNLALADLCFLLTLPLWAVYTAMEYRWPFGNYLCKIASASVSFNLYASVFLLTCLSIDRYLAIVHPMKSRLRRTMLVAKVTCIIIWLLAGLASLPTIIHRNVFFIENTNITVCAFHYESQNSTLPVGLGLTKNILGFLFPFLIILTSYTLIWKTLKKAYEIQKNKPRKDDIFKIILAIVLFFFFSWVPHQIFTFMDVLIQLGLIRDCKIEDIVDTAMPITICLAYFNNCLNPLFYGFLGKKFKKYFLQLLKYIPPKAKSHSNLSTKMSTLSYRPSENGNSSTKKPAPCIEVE
Protocol: (§1) All procedures were performed at 4° C. unless otherwise noted. Solubilization of specific binding activity was carried out by incubation of BAMM with 5 mM CHAPS. […] The solubilized membranes were centrifuged at 176,000×g (50,000 rpm in a Beckman 80Ti rotor) for 1 hour. The soluble BAMM preparation was stored at […] Prior to assay, soluble BAMM protein was filtered through a 0.22 μm filter and treated with SM2 beads. SM2 treatment proceeded with the addition of 1.1 g (w/v) of the beads and incubation for 1 to 2 hours with constant rotation. The beads were, removed under air pressure. Residual beads were removed from solution by microcentrifugation at 11,000×g (14,000 rpm.) for 15 minutes.
Assays were conducted in 1.2 ml tubes in a total assay volume of 200 μl. The incubation mixture contained 0.1 to 0.2 nM [^125 I]-SI-AII and incubation buffer (50 mM Tris, pH 7.4 at 4° C., 150 mM sodium chloride, 0.1% bovine serum albumin, 0.24 TI units/ml aprotinin, 0.1 mg/ml 1,10-phenanthroline). The binding reaction was initiated by the addition of 20 to 100 μg of BAMM or soluble BAMM diluted in incubation buffer. Binding proceeded at 37° C. for 2 hours with constant agitation. Reactions were terminated and bound and free radioligand separated by rapid filtration over double-thickness glass-fiber filters which had been presoaked in 0.3% polyethyleneimine in 50 mM Tris (pH 7.4) utilizing a Tomtec™96-well cell harvester set at four pulse washes. Filters were counted in a RIASTAT gamma counter or washed twice, microwave-dried, and counted in a Pharmacia 1205 Beta Plate flatbed scintillation counter in the presence of a dry scintillant (Pharmacia MeltiLex Scintillator Sheets™). Dissociation constants and slope factors were calculated according to Cheng and Prusoff (Biochem. Pharmacol. 22, 3099-3109; 1973) and Hill (J. Physiol. 40, 109-224; 1910), respectively. analysis of saturation binding data was performed using nonlinear regression least-square curve fitting to the nontransformed data or by Scathard transformation (Ann. N.Y.Acad. Sci., 51, 660672;1949).

AII receptor = assay: Recovery of solubilized [125I]-SI-AII binding activity from BAMM; design: species or system bovine; settings: DTNB 0.1 mM added to BAMM before solubilization; means ± standard errors, n = 4
Protocol: as §1
Assays were conducted in 1.2 ml tubes in a total assay volume of 200 μl. […] Filters were counted in a RIASTAT gamma counter or washed twice, microwave-dried, and counted in a Pharmacia 1205 Beta Plate flatbed scintillation counter in the presence of a dry scintillant (Pharmacia MeltiLex Scintillator Sheets™). Dissociation constants and slope factors were calculated according to Cheng and Prusoff (Biochem. Pharmacol. 22, 3099-3109; 1973) and Hill (J. Physiol. 40, 109-224; 1910), respectively. analysis of saturation binding data was performed using nonlinear regression least-square curve fitting to the nontransformed data or by Scathard transformation (Ann. N.Y.Acad. Sci., 51, 660672;1949).

membrane AII receptor = target: T2, membrane AII receptor (Bos taurus, UniProt P25104); assay: [125I]-SI-AII radioligand binding, bovine adrenal microsomal membranes (BAMM)
T2 construct: Aliquots (5 mg/ml) of the bovine adrenal microsomal membranes (BAMM) were stored; from tissue; host or cells: bovine adrenal, microsomal membranes
T2 sequence (P25104 1-359): T1 sequence (P25104 1-359)
Protocol: All the procedures were performed at 4° C. unless otherwise indicated. Bovine adrenals were cleaned of connective tissue and fat and were minced in 10 volumes of homogenization buffer (10 mM Tris, pH 7.4 at 4° C. containing 0.25M sucrose and 1 mM ethylenediaminetetraacetic acid). The minced tissue was homogenized using a Brinkmann polytron homogenizer (five ten second bursts at setting #8). The homogenate was centrifuged at 3,000×g (5,000 rpm) in a Sorvall SS34 rotor) for 10 minutes and the supernatant filtered through 3 layers of cheesecloth. The filtrate was centrifuged at 12,000×g (10,000 rpm in a Sorvall SS34 rotor) for 15 minutes. […]

O[C@H](CS)[C@H](O)CS (racemic) [DTT, dithiothreitol]
inhibition at 5000 µM (soluble AII receptor): ~90% | IC50 (soluble AII receptor; read-out: DTT concentration giving 50% reduction in ligand activity): 500 to 1000 µM

O=C(O)c1cc(SSc2ccc([N+](=O)[O-])c(C(=O)O)c2)ccc1[N+](=O)[O-] [DTNB, dithionitrobenzoic acid]
% recovery of solubilized AII receptor (AII receptor): 11.5 ± 1.5%

CCCCc1nc(Cl)c(CO)n1Cc1ccc(-c2ccccc2-c2nn[nH]n2)cc1 [DuP 753]
Kd (membrane AII receptor): 0.202 ± 0.022 µM | Slope Factor (membrane AII receptor; BAMM, means ± SEM, n = 3 to 5): 0.91 ± 0.03 | Kd (soluble AII receptor): 2.54 µM | Inhibition of [125I]-SI-AII binding (in words) (soluble AII receptor; SM2-treated soluble receptors): complete | Slope Factor (soluble AII receptor; Soluble preparation, means ± SEM, n = 3 to 5): 0.51 ± 0.05

Cc1cc(Cn2cnc3c2CC(C(=O)O)N(C(=O)C(c2ccccc2)c2ccccc2)C3)ccc1N (stereo not shown) [PD123177]
Inhibition of [125I]-SI-AII binding (in words) (soluble AII receptor; SM2-treated soluble receptors): negligible | Ki (soluble AII receptor; SM2-treated soluble receptors, read-out: inhibition constant): > 100 µM
